Experiments:
in vitro [1] = conditions: mouse, liver microsomes
in vitro [2] = conditions: mouse, liver microsomes; remark: listed apart in the source

Row | SMILES | remaining at 0.5 h, 1000 µM (in vitro [1]) [%] | remaining at 0.5 h, 1000 µM (in vitro [2]) [%]
1 | O=C1CC2(CCCC2)CC(=O)N1CCCCN1CCN(c2ncccn2)CC1 [BUSPIRONE] | 0.29 | 99.1
2 | O=C(/C=C/c1cccn(CCCc2ccc3ccccc3c2)c1=O)NO | 35.5 | 90.3

Reference: ChEMBL document CHEMBL4000204, “Improving potency and metabolic stability by introducing an alkenyl linker to pyridine-based histone deacetylase inhibitors for orally available RUNX3 modulators” (Eur J Med Chem, 2017)
